{
  "source": "ChEMBL document CHEMBL4376889",
  "about": "“Discovery of a Brain-Penetrant ATP-Competitive Inhibitor of the Mechanistic Target of Rapamycin (mTOR) for CNS Disorders” (J Med Chem, 2020)",
  "key": {"[1]": {"molecular_target": "Phosphatidylinositol 4,5-bisphosphate 3-kinase catalytic subunit beta isoform (Homo sapiens, UniProt P42338)", "sequence (P42338 whole entry, canonical isoform)": "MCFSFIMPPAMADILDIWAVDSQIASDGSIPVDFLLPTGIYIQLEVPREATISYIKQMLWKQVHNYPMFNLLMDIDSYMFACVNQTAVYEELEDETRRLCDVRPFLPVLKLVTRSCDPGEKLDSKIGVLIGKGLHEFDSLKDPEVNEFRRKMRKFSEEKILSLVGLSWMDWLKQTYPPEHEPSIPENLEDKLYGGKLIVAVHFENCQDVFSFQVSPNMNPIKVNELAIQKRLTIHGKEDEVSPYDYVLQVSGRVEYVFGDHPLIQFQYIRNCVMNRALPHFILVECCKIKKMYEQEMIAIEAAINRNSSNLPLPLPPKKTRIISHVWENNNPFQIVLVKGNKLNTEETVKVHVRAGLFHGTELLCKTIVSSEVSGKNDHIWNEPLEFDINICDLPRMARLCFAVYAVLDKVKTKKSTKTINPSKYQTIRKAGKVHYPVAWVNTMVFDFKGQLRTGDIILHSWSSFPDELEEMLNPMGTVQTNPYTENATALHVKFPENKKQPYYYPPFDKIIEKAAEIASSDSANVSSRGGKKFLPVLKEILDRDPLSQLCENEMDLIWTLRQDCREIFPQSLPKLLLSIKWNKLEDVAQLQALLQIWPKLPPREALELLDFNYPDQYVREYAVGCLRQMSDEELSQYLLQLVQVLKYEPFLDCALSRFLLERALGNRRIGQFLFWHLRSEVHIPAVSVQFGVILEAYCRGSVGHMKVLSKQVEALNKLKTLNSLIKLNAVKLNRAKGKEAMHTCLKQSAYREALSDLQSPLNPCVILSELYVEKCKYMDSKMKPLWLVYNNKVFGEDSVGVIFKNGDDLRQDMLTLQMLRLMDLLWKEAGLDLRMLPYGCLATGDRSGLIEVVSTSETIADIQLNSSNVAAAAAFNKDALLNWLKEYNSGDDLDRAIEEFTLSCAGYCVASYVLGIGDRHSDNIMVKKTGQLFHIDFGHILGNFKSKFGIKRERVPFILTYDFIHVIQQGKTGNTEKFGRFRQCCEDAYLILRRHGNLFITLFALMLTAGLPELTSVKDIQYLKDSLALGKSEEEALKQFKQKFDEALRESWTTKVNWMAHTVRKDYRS", "assay": "Inhibition of PI3Kbeta (unknown origin)"}, "[2]": {"molecular_target": "Cytochrome P450 2D6 (Homo sapiens, UniProt P10635)", "assay": "Inhibition of CYP2D6 (unknown origin)", "format": "ADME"}, "[3]": {"molecular_target": "1-phosphatidylinositol 3-phosphate 5-kinase (Homo sapiens) (UniProt Q9Y2I7)", "assay": "Inhibition of wild-type human partial length PIKFYVE (F1512 to C2098 residues) expressed in mammalian expression system at 10000 nM by Kinomescan method"}, "[4]": {"assay": "Selectivity index, ratio of IC50 for ATR (unknown origin) to IC50 for inhibition of mTOR in mouse MEF cells harboring TSC1 deletion mutant", "format": "cell-based"}, "[5]": {"molecular_target": "Serine-protein kinase ATM (Homo sapiens, UniProt Q13315)", "sequence (Q13315 whole entry)": "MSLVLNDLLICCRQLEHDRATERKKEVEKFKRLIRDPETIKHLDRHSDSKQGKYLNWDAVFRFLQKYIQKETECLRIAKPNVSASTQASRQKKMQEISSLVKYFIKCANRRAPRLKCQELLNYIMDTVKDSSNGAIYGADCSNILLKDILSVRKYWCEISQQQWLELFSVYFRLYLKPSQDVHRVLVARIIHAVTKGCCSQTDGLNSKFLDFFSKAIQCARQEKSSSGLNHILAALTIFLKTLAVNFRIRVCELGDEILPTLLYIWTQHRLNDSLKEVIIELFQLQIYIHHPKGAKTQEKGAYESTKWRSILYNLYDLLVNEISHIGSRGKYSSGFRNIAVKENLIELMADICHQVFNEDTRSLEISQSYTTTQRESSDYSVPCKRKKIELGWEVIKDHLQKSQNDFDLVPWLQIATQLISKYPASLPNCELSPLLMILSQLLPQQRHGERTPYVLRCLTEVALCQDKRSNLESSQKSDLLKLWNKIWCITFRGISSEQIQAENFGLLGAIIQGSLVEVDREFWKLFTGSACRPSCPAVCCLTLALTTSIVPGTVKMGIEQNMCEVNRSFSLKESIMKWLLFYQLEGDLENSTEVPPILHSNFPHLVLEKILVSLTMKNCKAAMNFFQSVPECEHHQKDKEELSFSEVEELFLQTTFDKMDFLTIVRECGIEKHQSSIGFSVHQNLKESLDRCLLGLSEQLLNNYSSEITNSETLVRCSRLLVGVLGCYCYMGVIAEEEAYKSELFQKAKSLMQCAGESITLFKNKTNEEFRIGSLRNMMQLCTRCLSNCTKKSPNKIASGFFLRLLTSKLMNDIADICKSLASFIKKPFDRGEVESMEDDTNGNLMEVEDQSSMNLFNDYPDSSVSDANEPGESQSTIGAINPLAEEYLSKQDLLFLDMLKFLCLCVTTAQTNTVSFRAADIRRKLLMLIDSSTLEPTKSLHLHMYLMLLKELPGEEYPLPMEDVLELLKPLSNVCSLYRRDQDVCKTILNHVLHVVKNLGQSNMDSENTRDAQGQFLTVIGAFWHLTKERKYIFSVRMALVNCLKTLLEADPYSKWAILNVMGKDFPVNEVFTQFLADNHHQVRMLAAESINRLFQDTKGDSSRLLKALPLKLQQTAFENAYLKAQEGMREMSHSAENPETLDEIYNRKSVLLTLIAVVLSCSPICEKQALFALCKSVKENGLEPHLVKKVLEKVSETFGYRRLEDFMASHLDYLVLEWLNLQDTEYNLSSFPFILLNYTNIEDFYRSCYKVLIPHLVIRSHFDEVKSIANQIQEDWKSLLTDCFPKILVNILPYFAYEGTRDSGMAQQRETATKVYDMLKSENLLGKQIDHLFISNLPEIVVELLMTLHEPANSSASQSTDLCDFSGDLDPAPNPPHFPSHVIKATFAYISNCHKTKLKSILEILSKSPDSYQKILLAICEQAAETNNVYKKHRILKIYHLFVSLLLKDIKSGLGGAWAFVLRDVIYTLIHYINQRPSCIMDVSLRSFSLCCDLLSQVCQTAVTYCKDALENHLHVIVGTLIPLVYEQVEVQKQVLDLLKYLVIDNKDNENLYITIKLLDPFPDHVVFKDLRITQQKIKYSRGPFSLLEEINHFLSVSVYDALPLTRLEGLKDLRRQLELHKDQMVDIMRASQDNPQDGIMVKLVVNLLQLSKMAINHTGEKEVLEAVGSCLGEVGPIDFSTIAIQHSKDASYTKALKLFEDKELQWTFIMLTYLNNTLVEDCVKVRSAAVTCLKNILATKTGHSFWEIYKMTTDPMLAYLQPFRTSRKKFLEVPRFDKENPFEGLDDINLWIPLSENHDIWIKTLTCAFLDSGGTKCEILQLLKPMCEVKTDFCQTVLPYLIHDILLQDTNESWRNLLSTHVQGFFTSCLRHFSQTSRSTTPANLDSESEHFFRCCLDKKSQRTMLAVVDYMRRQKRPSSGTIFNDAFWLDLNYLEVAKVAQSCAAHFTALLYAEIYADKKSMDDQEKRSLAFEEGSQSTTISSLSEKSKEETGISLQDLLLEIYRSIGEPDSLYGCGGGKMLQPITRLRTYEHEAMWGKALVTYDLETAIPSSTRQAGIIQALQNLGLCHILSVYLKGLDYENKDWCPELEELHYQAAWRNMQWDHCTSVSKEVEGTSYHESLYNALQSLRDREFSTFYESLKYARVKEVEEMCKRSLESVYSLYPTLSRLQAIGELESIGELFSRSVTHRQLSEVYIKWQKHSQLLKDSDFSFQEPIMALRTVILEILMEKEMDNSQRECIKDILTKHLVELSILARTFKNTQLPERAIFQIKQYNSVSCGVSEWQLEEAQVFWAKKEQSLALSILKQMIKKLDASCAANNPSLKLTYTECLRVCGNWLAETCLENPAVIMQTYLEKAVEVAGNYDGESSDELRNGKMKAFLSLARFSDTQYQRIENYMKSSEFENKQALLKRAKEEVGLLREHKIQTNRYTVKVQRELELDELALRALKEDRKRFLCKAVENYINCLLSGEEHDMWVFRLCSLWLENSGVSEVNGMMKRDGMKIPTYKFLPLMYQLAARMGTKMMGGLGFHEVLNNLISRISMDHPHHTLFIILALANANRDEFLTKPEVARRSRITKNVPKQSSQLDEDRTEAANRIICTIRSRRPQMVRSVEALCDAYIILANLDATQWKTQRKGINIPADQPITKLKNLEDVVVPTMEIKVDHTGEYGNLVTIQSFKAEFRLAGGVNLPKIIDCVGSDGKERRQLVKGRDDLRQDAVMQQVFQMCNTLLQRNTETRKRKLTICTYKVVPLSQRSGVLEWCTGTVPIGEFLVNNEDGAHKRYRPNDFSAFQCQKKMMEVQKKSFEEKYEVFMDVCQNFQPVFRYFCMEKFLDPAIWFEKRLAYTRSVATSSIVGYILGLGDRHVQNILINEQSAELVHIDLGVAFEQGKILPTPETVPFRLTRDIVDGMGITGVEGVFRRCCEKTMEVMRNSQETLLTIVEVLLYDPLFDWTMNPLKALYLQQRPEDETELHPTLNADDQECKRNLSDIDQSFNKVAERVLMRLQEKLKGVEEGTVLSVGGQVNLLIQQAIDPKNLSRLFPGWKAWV", "assay": "Inhibition of ATM (unknown origin) assessed as reduction in CHK2 phosphorylation by cell based assay"}, "[6]": {"assay": "Selectivity index, ratio of IC50 for ATM (unknown origin) to IC50 for inhibition of mTOR in mouse MEF cells harboring TSC1 deletion mutant", "format": "cell-based"}, "[7]": {"molecular_target": "3',5'-cyclic-AMP phosphodiesterase 4D (Homo sapiens, UniProt Q08499)", "sequence (Q08499 whole entry)": "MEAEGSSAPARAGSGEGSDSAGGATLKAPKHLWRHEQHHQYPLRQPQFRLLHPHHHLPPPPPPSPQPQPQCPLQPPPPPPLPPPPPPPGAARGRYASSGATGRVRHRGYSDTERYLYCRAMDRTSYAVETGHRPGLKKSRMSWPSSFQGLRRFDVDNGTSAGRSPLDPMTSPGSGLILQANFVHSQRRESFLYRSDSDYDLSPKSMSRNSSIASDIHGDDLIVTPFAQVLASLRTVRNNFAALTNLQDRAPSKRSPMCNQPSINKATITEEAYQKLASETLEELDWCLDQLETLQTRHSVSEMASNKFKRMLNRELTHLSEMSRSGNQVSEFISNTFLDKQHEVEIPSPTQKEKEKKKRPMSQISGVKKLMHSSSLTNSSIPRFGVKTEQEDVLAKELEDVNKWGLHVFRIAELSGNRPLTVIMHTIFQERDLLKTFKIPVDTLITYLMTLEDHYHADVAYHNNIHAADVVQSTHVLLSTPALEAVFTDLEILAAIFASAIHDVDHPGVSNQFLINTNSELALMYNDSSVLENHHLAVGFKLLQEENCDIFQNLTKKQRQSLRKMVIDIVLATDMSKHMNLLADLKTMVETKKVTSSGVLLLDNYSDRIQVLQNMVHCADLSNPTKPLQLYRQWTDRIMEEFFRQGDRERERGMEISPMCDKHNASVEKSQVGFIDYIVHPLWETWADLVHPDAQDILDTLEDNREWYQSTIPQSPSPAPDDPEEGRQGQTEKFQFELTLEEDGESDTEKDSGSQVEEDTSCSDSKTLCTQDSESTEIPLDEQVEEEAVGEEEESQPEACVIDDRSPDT", "assay": "Inhibition of PDE4D (unknown origin)"}, "[8]": {"assay": "AUC (0 to t) in C57BL/6 mouse at 5 mg/kg, po by HPLC analysis", "format": "ADME, organism-based", "settings": "in vivo"}, "[9]": {"assay": "Cmax in C57BL/6 mouse at 1 mg/kg, iv or 5 mg/kg, po by HPLC analysis", "format": "ADME, organism-based", "settings": "in vivo"}, "[10]": {"assay": "Oral bioavailability in C57BL/6 mouse at 5 mg/kg by HPLC analysis", "format": "ADME, organism-based", "settings": "in vivo"}, "[11]": {"assay": "Clearance in C57BL/6 mouse at 1 mg/kg, iv or 5 mg/kg, po by HPLC analysis", "format": "ADME, organism-based", "settings": "in vivo"}, "[12]": {"assay": "Half life in C57BL/6 mouse at 1 mg/kg, iv or 5 mg/kg, po by HPLC analysis", "format": "ADME, organism-based", "settings": "in vivo"}, "[13]": {"assay": "MRT (0 to t) in C57BL/6 mouse at 1 mg/kg, iv or 5 mg/kg, po by HPLC analysis", "format": "ADME, organism-based", "settings": "in vivo"}, "[14]": {"assay": "Cmax in Sprague-Dawley rat at 1 mg/kg, iv or 3 mg/kg, po by HPLC analysis", "format": "ADME, organism-based", "settings": "in vivo"}, "[15]": {"assay": "Tmax in Sprague-Dawley rat at 1 mg/kg, iv or 3 mg/kg, po by HPLC analysis", "format": "ADME, organism-based", "settings": "in vivo"}, "[16]": {"assay": "Oral bioavailability in Sprague-Dawley rat at 3 mg/kg by HPLC analysis", "format": "ADME, organism-based", "settings": "in vivo"}, "[17]": {"assay": "Clearance in Sprague-Dawley rat at 1 mg/kg, iv or 3 mg/kg, po by HPLC analysis", "format": "ADME, organism-based", "settings": "in vivo"}, "[18]": {"assay": "Volume of distribution at steady state in Sprague-Dawley rat at 1 mg/kg, iv or 3 mg/kg, po by HPLC analysis", "format": "ADME, organism-based", "settings": "in vivo, read-out: Vdss"}, "[19]": {"assay": "Half life in Sprague-Dawley rat at 1 mg/kg, iv or 3 mg/kg, po by HPLC analysis", "format": "ADME, organism-based", "settings": "in vivo"}, "[20]": {"assay": "MRT (0 to t) in Sprague-Dawley rat at 1 mg/kg, iv or 3 mg/kg, po by HPLC analysis", "format": "ADME, organism-based", "settings": "in vivo"}, "[21]": {"assay": "Protein binding in Sprague-Dawley rat plasma at 5 uM incubated for 4 hrs by LC-MS/MS analysis", "format": "ADME, cell-free", "settings": "read-out: PPB (converted)"}, "[22]": {"molecular_target": "Serine/threonine-protein kinase mTOR (Mus musculus) (UniProt Q9JLN9)", "assay": "Inhibition of mTOR in mouse primary cortical neuron harboring TSC1 deletion mutant assessed as reduction in PS6 phosphorylation incubated for 4 hrs by Western blot analysis"}, "[23]": {"system": "Cortical neurone", "assay": "Inhibition of overgrowth of mouse primary cortical neuron harboring TSC1 deletion mutant at 200 nM incubated for 7 days by immunofluorescence assay", "format": "functional, cell-based"}, "[24]": {"molecular_target": "Serine/threonine-protein kinase mTOR (Rattus norvegicus, UniProt P42346)", "assay": "Inhibition of mTOR in rat primary cortical neuron assessed as reduction in PS6 phosphorylation incubated for 4 hrs by Western blot analysis (reference value: 19 nM)"}, "[25]": {"molecular_target": "Serine/threonine-protein kinase mTOR (Rattus norvegicus, UniProt P42346, S2215Y)", "assay": "Inhibition of mTOR S2215Y mutant in rat primary cortical neuron assessed as reduction in PS6 phosphorylation incubated for 4 hrs by Western blot analysis (reference value: 19 nM)"}, "[26]": {"system": "Mus musculus", "assay": "In vivo inhibition of mTOR pathway in C57BL/6J mouse assessed as reduction in mTORC1/mTORC2 complex by measuring PS6 phosphorylation level at 1 to 10 mg/kg, po measured after 24 hrs by Western blot analysis", "format": "functional, organism-based"}, "[27]": {"system": "Mus musculus", "assay": "In vivo inhibition of mTOR pathway in C57BL/6J mouse assessed as reduction in mTORC1/mTORC2 complex by measuring AKT phosphorylation level at 1 to 10 mg/kg, po measured after 8 hrs by Western blot analysis", "format": "functional, organism-based"}, "[28]": {"system": "Mus musculus", "assay": "In vivo inhibition of mTOR pathway in C57BL/6J mouse assessed as reduction in mTORC1/mTORC2 complex by measuring AKT phosphorylation level at 1 to 10 mg/kg, po measured after 24 hrs by Western blot analysis", "format": "functional, organism-based"}, "[29]": {"system": "Mus musculus", "assay": "In vivo inhibition of PI3KCA in C57BL/6J mouse assessed as reduction in AKT phosphorylation Thr308 at 1 to 10 mg/kg, po measured after 24 hrs by Western blot analysis", "format": "functional, organism-based"}, "[30]": {"assay": "Drug uptake in C57BL/6J mouse brain at 1 mg/kg, po incubated for 3 hrs by LC-MS/MS analysis", "format": "ADME, organism-based", "settings": "read-out: Drug uptake"}, "[31]": {"assay": "Ratio of drug concentration in brain to plasma in C57BL/6J mouse at 1 mg/kg, po incubated for 3 hrs by LC-MS/MS analysis", "format": "ADME, organism-based", "settings": "read-out: BPR"}, "[32]": {"assay": "Ratio of drug concentration in brain to plasma in C57BL/6J mouse at 3 mg/kg, po incubated for 3 hrs by LC-MS/MS analysis", "format": "ADME, organism-based", "settings": "read-out: BPR"}, "[33]": {"assay": "Ratio of drug concentration in brain to plasma in C57BL/6J mouse at 10 mg/kg, po incubated for 3 hrs by LC-MS/MS analysis", "format": "ADME, organism-based", "settings": "read-out: BPR"}, "[34]": {"system": "Mus musculus", "assay": "Protection against C57BL/6J mouse model of neuronal mTOR hyperactivity assessed as survival rate at 10 mg/kg, ip administered on postnatal day 22 daily and measured on postnatal day 36 (reference value: 48 %)", "format": "functional"}, "[35]": {"system": "Mus musculus", "assay": "Protection against C57BL/6J mouse model of neuronal mTOR hyperactivity assessed as survival rate at 10 mg/kg, ip administered on postnatal day 22 daily and measured on postnatal day 52 (reference value: 48 %)", "format": "functional"}},
  "note": "The source made the active and inactive calls. The rule behind the calls is not given here.",
  "data": [
    {"smiles": "C[C@@H]1COCCN1c1nc(N2CCOC[C@@H]2C)nc2sc(-c3cc[nH]n3)nc12", "values": [
      {"measurement": "IC50", "setting": "[1]", "result": "> 10", "unit": "µM"},
      {"measurement": "IC50", "setting": "[2]", "result": "> 50", "unit": "µM"},
      {"measurement": "inhibition", "setting": "[3]", "result": "Active"},
      {"measurement": "Ratio IC50", "setting": "[4]", "result": 70},
      {"measurement": "IC50", "setting": "[5]", "result": 20, "unit": "nM"},
      {"measurement": "Ratio IC50", "setting": "[6]", "result": 3570},
      {"measurement": "IC50", "setting": "[7]", "result": 210, "unit": "nM"},
      {"measurement": "AUC(0-t)", "setting": "[8]", "result": 14.9, "unit": "µM·h"},
      {"measurement": "Cmax", "setting": "[9]", "result": 2700, "unit": "nM"},
      {"measurement": "bioavailability", "setting": "[10]", "result": 61, "unit": "%"},
      {"measurement": "clearance", "setting": "[11]", "result": 6.5, "unit": "mL/min/kg"},
      {"measurement": "half-life", "setting": "[12]", "result": 258, "unit": "min"},
      {"measurement": "MRT last", "setting": "[13]", "result": 2.6, "unit": "h"},
      {"measurement": "Cmax", "setting": "[14]", "result": 1120, "unit": "nM"},
      {"measurement": "Tmax", "setting": "[15]", "result": 1.5, "unit": "h"},
      {"measurement": "bioavailability", "setting": "[16]", "result": 81, "unit": "%"},
      {"measurement": "clearance", "setting": "[17]", "result": 9.5, "unit": "mL/min/kg"},
      {"measurement": "Vd", "setting": "[18]", "result": 2.6, "unit": "L/kg"},
      {"measurement": "half-life", "setting": "[19]", "result": 222, "unit": "min"},
      {"measurement": "MRT last", "setting": "[20]", "result": 4.3, "unit": "h"},
      {"measurement": "fraction unbound at 4 h, 5 µM", "setting": "[21]", "result": 0.012},
      {"measurement": "inhibition", "setting": "[22]", "result": "Dose-dependent effect"},
      {"measurement": "inhibition", "setting": "[23]", "result": "Active"},
      {"measurement": "IC50", "setting": "[24]", "result": 17, "unit": "nM"},
      {"measurement": "IC50", "setting": "[25]", "result": 14, "unit": "nM"},
      {"measurement": "inhibition", "setting": "[26]", "result": "inactive"},
      {"measurement": "inhibition", "setting": "[27]", "result": "Active"},
      {"measurement": "inhibition", "setting": "[28]", "result": "inactive"},
      {"measurement": "inhibition", "setting": "[29]", "result": "inactive"},
      {"measurement": "concentration at 3 h", "setting": "[30]", "result": 929, "unit": "nM"},
      {"measurement": "Kp at 3 h", "setting": "[31]", "result": 1.1},
      {"measurement": "Kp at 3 h", "setting": "[32]", "result": 1.1},
      {"measurement": "Kp at 3 h", "setting": "[33]", "result": 1.3},
      {"measurement": "Activity", "setting": "[34]", "result": 95, "unit": "%"},
      {"measurement": "Activity", "setting": "[35]", "result": 84, "unit": "%"}
    ]}
  ]
}
